Source: patent US20250101077A1, “PEPTIDES AND PHARMACEUTICAL COMPOSITION FOR THE TREATMENT OF TUMOURS” (UNIVERSIDAD DE SALAMANCA, priority 2022, published 2025)

Tests used:
[1] = test system: G166 human glioblastoma stem cells; experiment: MTT colour viability test and phase-contrast images; format: cell-based; conditions: 50 μM; for proliferation and survival of human glioblastoma stem cells: phase-contrast images at 48h and MTT at 0, 24, 48 and 72h, FIGS. 5 and 6; for morphology and viability of glioblastoma stem cells (MTT assay): FIG. 1
Method: The human glioblastoma stem cell line G166 was obtained from Biorep, deposited and characterised in Pollard et al., Cell Stem Cell. 4(6):568-80 (2009). The human glioblastoma stem cell line E22 was also obtained from Pollard lab (U. Edinburgh).
In all these cases, cells were cultured in neurobasal culture medium supplemented with 2% B27, 1% N2, 20 ng/mL EGF and 20 ng/mL bFGF, in laminin-coated culture plates, to generate adherent cell cultures. Thanks to their self-renewal capacity, when these cells are expanded in adherent cultures under these culture conditions, they maintain the above-mentioned properties, i.e. the characteristic glioblastoma stem cell phenotype and genotype, including their tumourigenicity, for more than 20 passages.
(§1) Different peptides based on the 266-283 sequence of Cx43 fused to TAT at its N-terminal end were used, all at a concentration of 50 μM, in culture medium and their effect was analysed at different treatment times. In parallel, these cells were analysed in the absence of treatment (control), in the presence of the antitumour peptide TAT-Cx43266-283 ([…]; corresponding to the peptide described in patent WO2014191608 A1 linked to the cell internalisation sequence TAT; SEQ ID NO: 35) and in the presence of the peptides without antitumour activity, TAT (YGRKKRRQRRR; SEQ ID NO: 7) and TAT-Cx43274-291 (YGRKKRRQRRR PTAPLSPMSPPGYKLVTG; SEQ ID NO: 26). For pull-down assays and visualization the peptides were fused to biotin via a C-terminal lysine.
For this study, cells were seeded at low density and the number of viable cells was determined at different days of treatment. For this purpose, the medium was removed and the cells were incubated with 300 μL of PBS in the presence of MTT (0.5 mg/mL) for 75 minutes in the dark at 37° C. in a CO2 incubator. The medium was then removed, and 500 μL of DMSO was added. The cells were shaken in the dark for 10 minutes. Finally, absorbance was determined at 570 nm.

[2] = test system: human glioblastoma stem cells; experiment: Internalisation of biotin-fused peptides; format: cell-based; conditions: peptides fused to biotin
Method: as §1

albumin = albumin (Homo sapiens, UniProt P02768); experiment: Albumin binding by Western blot under native or denaturing and reducing conditions; conditions: 2.5 μM biotinylated peptide plus 0.1% (w/v) albumin in PBS, native conditions, FIG. 8
Method: FIG. 8. TAT-Cx43266-283 and TAT-Cx43266-275 bind to albumin via a cysteine dependent mechanism. TAT, TAT-Cx43274-291, TAT-Cx43266-283, TAT-Cx43266-283F/A, TAT-Cx43266-283C/A and TAT-Cx43266-275 were fused to biotin to allow their analysis by Western blot. Solutions of each peptide plus albumin in PBS were analyzed in native (N) or denaturing and reducing conditions (DR) to identify their interaction with albumin. […] Note that the sensitivity of the Ponceau staining was not enough to detect the peptide at about 10 kDa, therefore only albumin bands are shown. […] Note that TAT-Cx43266-283 and TAT-Cx43266-275 appear bound to albumin under native conditions while denaturation and reduction promoted the release of these peptides.
Western blotting was performed as described previously (Jaraiz-Rodriguez, M. et al., Neuro-Oncology, 22, 493-504 (2020)). Briefly, 2.5 μM biotinylated peptides plus 0.1% (w/v) albumin in PBS were analysed by Western blot under native (N) or denaturing and reducing (DR) conditions. For native conditions, samples were analysed without further treatment. For denaturing and reducing conditions samples were treated with 0.1 M β-mercaptoethanol and 4% SDS and heated at 99° C. for 5 min. Samples were subjected to electrophoresis on NuPAGE Novex Bis-Tris 4-12% Midi gels (Life Technologies) at room temperature and constant voltage. Proteins were transferred to a nitrocellulose membrane (iBlot Gel Transfer Stacks Nitrocellulose) using an iBlot dry blotting system (Life Technologies). Membranes were incubated with Ponceau S staining solution for protein staining in red. After washing the membranes were blocked with 5% non-fat dry milk in PBS and then incubated with HRP-Streptavidin (1:5000; Dako P0397) for 30 minutes at room temperature. After extensive washing, the membranes were developed with a chemiluminescent substrate (Western Blotting Luminol Reagent; Santa Cruz Biotechnology) in a MicroChemi imaging system (Bioimaging Systems).

[3] = test system: G166 human glioblastoma stem cells; experiment: Migration by live cell microscope videos; format: cell-based; conditions: 50 μM, frames every 100 minutes, FIG. 7
Method: FIG. 7. Representative images of the effect of Cx43-based penetrating peptides on the migration of human glioblastoma stem cells. G166 human glioblastoma stem cells were treated in the absence (control) or presence of TAT-Cx43266-283 or TAT-Cx43266-275, both at a concentration of 50 μM. Phase-contrast videos of the cells were made using a live cell microscope. Shown are 3 representative frames taken every 100 minutes of the cells in the control condition, TAT-Cx43266-283 and TAT-Cx43266-275. 3 cells in each condition have been selected and numbered.
Migration is the cause of these tumour cells invading the surrounding parenchyma, escaping surgery and causing the recurrence of these tumours, which is the main cause of mortality.

Csk = target: T1, Csk (Homo sapiens, UniProt P41240); experiment: Pull-down of biotinylated peptides with NeutrAvidin beads, Western blot; format: binding; conditions: 50 μM biotinylated peptide, 30 min, E22 glioblastoma stem cells, FIG. 9
T1 construct: endogenous in cells; host or cells: human E22 glioblastoma stem cells
Method: (§2) FIG. 9. Intracellular interactions of biotinylated TAT-Cx43266-283, TAT-Cx43266-283C/A and TAT-Cx43266-275 in human glioblastoma stem cells. Human E22 glioblastoma stem cells were incubated with 50 μM biotinylated TAT-Cx43266-283, TAT-Cx43266-283C/A and TAT-Cx43266-275. After 30 min the cells were lysed and biotinylated peptides attached to their intracellular partners were pulled down with NeutrAvidin beads. The eluted proteins were loaded and analyzed by Western blot to study the levels of c-Src, Y416-Src, and Csk.
(§3) Pulldown experiments were performed as described in González-Sánchez A. et al., Oncotarget, 7(31):49819-49833 (2016); Jaraiz-Rodriguez M. et al., J Vis Exp. (130):56457 (2017)). Confluent cells grown in 25 cm^2 flasks were incubated with 50 μM biotinylated peptides for 30 min. Proteins were then collected in 0.5 ml of lysis buffer (20 mM Tris-HCl (pH 8.0), 137 mM NaCl, 1% IGEPAL, 1 mM PMSF, protease cocktail (1:100; Cocktail Ill, Calbiochem), 1 mM NaF and 0.1 mM Na3VO4). Lysates were centrifuged at 11000×g for 10 minutes at 4° C., and the supernatants were recovered. A 50-μl aliquot of each lysate was used to analyze the protein content, and the remaining lysate was incubated with NeutrAvidin-Agarose (Thermo Scientific, Rockford, IL, USA; Ref. 29200) for 12 h at 4° C. with gentle shaking. The avidin beads bound with the peptides were collected by centrifugation (3000×g for 1 minutes at 4° C.). The beads were then washed five times with lysis buffer, and the bound proteins were eluted and analyzed by Western blotting under denaturing and reducing contidions. The membranes were blocked with 5% non-fat dry milk in PBS-T and then incubated overnight at 4° C. with the primary antibodies against rabbit CSK (1:250; Cell Signaling Technology, Ref. 4980), rabbit Y416 Src (1:250, Cell Signaling Technology, Ref. 2101) and mouse total c-Src (1:500, Cell Signaling Technology, Ref. 2110). To detect biotinylated peptides, the membranes were incubated with HRP-conjugated streptavidin in PBS (1:5000; Dako Ref.P0397) for 30 minutes and then developed with a chemiluminescent substrate.

Y416-Src = target: T2, Y416-Src (Homo sapiens, UniProt P12931); experiment: as above; format: binding; conditions: 50 μM biotinylated peptide, 30 min, E22 glioblastoma stem cells, FIG. 9
T2 construct: endogenous in cells; host or cells: human E22 glioblastoma stem cells
Method: as §2, §3

c-Src [4] = target: T3, c-Src (Homo sapiens, UniProt P12931); conditions: from cited publications; cited from earlier work
[5] = test system: human and mouse glioblastoma stem cells; conditions: in vitro and in vivo, from cited publications; cited from earlier work
c-Src [6] = target: T3, c-Src; experiment: Pull-down of biotinylated peptides with NeutrAvidin beads, Western blot; format: binding; set-up: the cells were lysed and biotinylated peptides attached to their intracellular partners were pulled down with NeutrAvidin beads; endogenous in cells; host or cells: human E22 glioblastoma stem cells; conditions: 50 μM biotinylated peptide, 30 min, E22 glioblastoma stem cells, FIG. 9
Method: as §2
as §3, with “To detect biotinylated peptides, the membranes were incubated with HRP-conjugated streptavidin in PBS (1:5000; Dako Ref.P0397) for 30 minutes and then developed with a chemiluminescent substrate.” left out

T1 sequence (P41240 whole entry): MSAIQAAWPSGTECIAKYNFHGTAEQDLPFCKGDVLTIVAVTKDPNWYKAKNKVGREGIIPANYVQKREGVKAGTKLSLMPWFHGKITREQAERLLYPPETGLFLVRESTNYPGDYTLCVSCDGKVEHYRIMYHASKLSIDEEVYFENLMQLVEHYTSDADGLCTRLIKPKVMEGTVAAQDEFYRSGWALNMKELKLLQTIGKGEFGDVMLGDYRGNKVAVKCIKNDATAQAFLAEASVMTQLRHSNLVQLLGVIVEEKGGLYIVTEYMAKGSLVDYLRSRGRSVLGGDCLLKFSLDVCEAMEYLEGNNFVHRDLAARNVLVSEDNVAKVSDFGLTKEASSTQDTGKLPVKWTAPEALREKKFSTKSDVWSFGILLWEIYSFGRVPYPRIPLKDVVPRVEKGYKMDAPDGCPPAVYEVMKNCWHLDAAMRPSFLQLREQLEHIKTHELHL

## YGRKKRRQRRRFNGCSSPTAPLSPMSP [TAT-Cx43268-283]
[1]; 72h, FIG. 3
  ability to reduce proliferation (MTT assay): less ability to reduce proliferation than TAT-Cx43266-283

## YGRKKRRQRRRCSSPTAPLSPMSPPGYK [TAT-Cx43271-287]
[1]; 72h, FIG. 2
  glioblastoma stem cell survival and proliferation (MTT assay): slightly reduces glioblastoma stem cell proliferation

## YGRKKRRQRRRAYFNGCSSPTAPLSPM [TAT-Cx43266-281]
[1]
  proliferation and survival of human glioblastoma stem cells: reduce proliferation and survival
[2]
  internalisation in human glioblastoma stem cells: able to be internalised

## YGRKKRRQRRR (Cell internalisation sequence) [TAT, reference compound]
[1]
  proliferation and survival of human glioblastoma stem cells: do not produce significant effects

## YGRKKRRQRRRAYANGCSSPTAPLSPMSP [TAT-Cx43266-283 F/A]
[1]; 48h, FIG. 4
  tumour cell morphology and viability (MTT assay): affects tumour cell morphology and viability, but to a much lesser extent
albumin
  binding to albumin: did not affect the interaction with albumin

## YGRKKRRQRRRAYFNGCSSPTAPLSPMSP [TAT-Cx43266-283, reference compound]
[1]; 48h
  morphology and viability of glioblastoma stem cells (MTT assay): significantly reduces the viability
[1]
  proliferation and survival of human glioblastoma stem cells: reduce proliferation and survival
[2]
  internalisation in human glioblastoma stem cells: able to be internalised
[3]
  migration of human glioblastoma stem cells: reduces the migration
albumin
  binding to albumin: bind to albumin under native conditions
Csk
  intracellular interaction with Csk: interact preferentially
Y416-Src
  intracellular interaction with Y416-Src: interact preferentially
c-Src [4]
  c-Src activity: inhibit c-Src activity
[5]
  antitumour effect: potent antitumour effect
c-Src [6]
  intracellular interaction with c-Src: interact preferentially

## YGRKKRRQRRRAYFNGASSPTAPLSPMSP [TAT-Cx43266-283 C/A]
[1]; 48h
  morphology and viability of glioblastoma stem cells (MTT assay): very similar to that of untreated (control) cells
albumin
  binding to albumin: disrupted albumin-peptide interaction
Csk
  intracellular interaction with Csk: did not show significant interactions
Y416-Src
  intracellular interaction with Y416-Src: did not show significant interactions
c-Src [6]
  intracellular interaction with c-Src: did not show significant interactions

## YGRKKRRQRRRAYFNGCSSPT [TAT-Cx43266-275]
[1]; 0-72h, FIG. 6
  anti-tumour effect compared with the other peptides (MTT assay): significantly higher than the rest of the peptides
[1]
  proliferation and survival of human glioblastoma stem cells: reduce proliferation and survival
[2]
  internalisation in human glioblastoma stem cells: able to be internalised
[3]
  migration of human glioblastoma stem cells: reduces the migration
albumin
  binding to albumin: bind to albumin under native conditions
Csk
  intracellular interaction with Csk: interact preferentially
Y416-Src
  intracellular interaction with Y416-Src: interact preferentially
c-Src [6]
  intracellular interaction with c-Src: interact preferentially

## YGRKKRRQRRR PTAPLSPMSPPGYKLVTG (YGRKKRRQRRRPTAPLSPMSPPGYKLVTG) [TAT-Cx43274-291, reference compound]
[1]
  proliferation and survival of human glioblastoma stem cells: do not produce significant effects

## YGRKKRRQRRRAYFNGCSSPTAP [TAT-Cx43266-277]
[1]
  proliferation and survival of human glioblastoma stem cells: reduce proliferation and survival
[2]
  internalisation in human glioblastoma stem cells: able to be internalised

## YGRKKRRQRRRAYFNGCSSPTAPLS [TAT-Cx43266-279]
[1]
  proliferation and survival of human glioblastoma stem cells: reduce proliferation and survival
[2]
  internalisation in human glioblastoma stem cells: able to be internalised
